# Source: patent US20110190321A1, “[…] FOR EGFR INHIBITOR TREATMENT” (priority 2007, published 2011)
# Experiments:
# [1] = patients with cancer, 150 mg/day dose; 500 ng/ml is the average concentration targeted for clinical efficacy; cited from earlier work
# [2] = test system: patients with advanced NSCLC following failure of at least one prior chemotherapy regimen; test: Open-label predictive marker identification Phase II study of Tarceva monotherapy 150 mg/day; RECIST response and survival; assay type: in vivo, human; details: 102 patients with evaluable microarray data
# Procedure: The selection of this dose was based on pharmacokinetic parameters, as well as the safety and tolerability profile of this dose observed in Phase I, II and III trials in heavily pre-treated patients with advanced cancer. Drug levels seen in the plasma of patients with cancer receiving the 150 mg/day dose were consistently above the average plasma concentration of 500 ng/ml targeted for clinical efficacy.
# This was an open-label, predictive marker identification Phase II study. The study was conducted in approximately 26 sites in about 12 countries. 264 patients with advanced NSCLC following failure of at least one prior chemotherapy regimen were enrolled over a 12 month period. […] Dose reductions were permitted based on tolerability to drug therapy. Clinical and laboratory parameters were assessed to evaluate disease control and toxicity. Treatment continued until disease progression, unacceptable toxicity or death. The study design is depicted in FIG. 1.
# The RECIST (Uni-dimensional Tumour Measurement) criteria were used to evaluate response. These criteria can be found under the following link: […]
# A regular status check every 3 months was performed either by a patient's visit to the clinic or by telephone. All deaths were recorded. […]
# [3] = test system: NSCLC patients for whom standard therapy for advanced disease has failed; details: single agent versus placebo, BR.21; cited from earlier work
structure (smiles),measurement,setting,value
"C#Cc1cccc(Nc2ncnc3cc(OCCOC)c(OCCOC)cc23)c1 [Erlotinib, erlotinib]",Drug levels in plasma,[1],> 500 ng/mL
same,Best Response PD,[2],(48.0%)
same,Best Response PR,[2],(5.9%)
same,survival of NSCLC patients,[3],significantly prolongs and improves the survival
